Measured values reported in PubChem BioAssay AID1259411 (Chemical Carcinogenesis Research Information System (CCRIS), 2018).
Active and inactive are the calls of the source. No rule for the calls is given here.

Tested on: rodent carcinogenicity bioassays, tumor incidence
Experiment: CCRIS carcinogenicity studies
Procedure, shortened: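 NCI-built, expert-reviewed records of carcinogenicity and related test outcomes (mutagenicity, tumor promotion/inhibition) compiled from published and report sources, historical span 1985-2011, not updated.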

C=C(C)CCl
carcinogen call (Species: MOUSE, Strain/Sex: B6C3F1/FEMALE, Route: GAVAGE, Dose: 0, 100, 200 MG/KG IN CORN OIL 5 D/WK FOR 103 WK (STUDY DURATION: 2 YR), Dose: 0, 100, 200 MG/KG IN CORN OIL 5 D/WK FOR 103 WK (STUDY DURATION: 2 YR), Tumor Site: Type of Lesion: FORESTOMACH: EPITHELIAL HYPERPLASIA, SQUAMOUS CELL PAPILLOMA): active; positive
carcinogen call (Species: MOUSE, Strain/Sex: B6C3F1/FEMALE, Route: GAVAGE, Dose: 0, 100, 200 MG/KG IN CORN OIL 5 D/WK FOR 103 WK, Dose: 0, 100, 200 MG/KG IN CORN OIL 5 D/WK FOR 103 WK, Tumor Site: Type of Lesion: FORESTOMACH: SQUAMOUS CELL PAPILLOMA, SQUAMOUS CELL PAPILLOMA OR CARCINOMA): active; positive
carcinogen call (Species: MOUSE, Strain/Sex: B6C3F1/MALE, Route: GAVAGE, Dose: 0, 100, 200 MG/KG IN CORN OIL 5 D/WK FOR 103 WK (STUDY DURATION: 2 YR), Dose: 0, 100, 200 MG/KG IN CORN OIL 5 D/WK FOR 103 WK (STUDY DURATION: 2 YR), Tumor Site: Type of Lesion: FORESTOMACH: EPITHELIAL HYPERPLASIA, SQUAMOUS CELL PAPILLOMA, SQUAMOUS CELL CARCINOMA): active; positive
carcinogen call (Species: MOUSE, Strain/Sex: B6C3F1/MALE, Route: GAVAGE, Dose: 0, 100, 200 MG/KG IN CORN OIL 5 D/WK FOR 103 WK, Dose: 0, 100, 200 MG/KG IN CORN OIL 5 D/WK FOR 103 WK, Tumor Site: Type of Lesion: FORESTOMACH: SQUAMOUS CELL PAPILLOMA, SQUAMOUS CELL CARCINOMA): active; positive
carcinogen call (Species: MOUSE, Strain/Sex: BDF1/FEMALE, Route: INHALATION, Dose: 0, 50, 100, 200 PPM 6 HR/D 5 D/WK FOR 104 WK (STUDY DURATION: 104 WK), Dose: 0, 50, 100, 200 PPM 6 HR/D 5 D/WK FOR 104 WK (STUDY DURATION: 104 WK), Tumor Site: Type of Lesion: HARDERIAN GLAND: ADENOMA): active; positive
carcinogen call (Species: MOUSE, Strain/Sex: BDF1/MALE, Route: INHALATION, Dose: 0, 50, 100, 200 PPM 6 HR/D 5 D/WK FOR 104 WK (STUDY DURATION: 104 WK), Dose: 0, 50, 100, 200 PPM 6 HR/D 5 D/WK FOR 104 WK (STUDY DURATION: 104 WK)): inactive; negative
carcinogen call (Species: RAT, Strain/Sex: F344/FEMALE, Route: GAVAGE, Dose: 0, 75, 150 MG/KG IN CORN OIL 5 D/WK FOR 103 WK (STUDY DURATION: 2 YR), Dose: 0, 75, 150 MG/KG IN CORN OIL 5 D/WK FOR 103 WK (STUDY DURATION: 2 YR), Tumor Site: Type of Lesion: FORESTOMACH: BASAL CELL HYPERPLASIA, SQUAMOUS CELL PAPILLOMA): active; positive
carcinogen call (Species: RAT, Strain/Sex: F344/FEMALE, Route: GAVAGE, Dose: 0, 75, 150 MG/KG IN CORN OIL 5 D/WK FOR 103 WK, Dose: 0, 75, 150 MG/KG IN CORN OIL 5 D/WK FOR 103 WK, Tumor Site: Type of Lesion: FORESTOMACH: PAPILLOMA): active; positive
carcinogen call (Species: RAT, Strain/Sex: F344/MALE, Route: GAVAGE, Dose: 0, 75, 150 MG/KG IN CORN OIL 5 D/WK FOR 103 WK (STUDY DURATION: 2 YR), Dose: 0, 75, 150 MG/KG IN CORN OIL 5 D/WK FOR 103 WK (STUDY DURATION: 2 YR), Tumor Site: Type of Lesion: FORESTOMACH: BASAL CELL OR EPITHELIAL HYPERPLASIA, SQUAMOUS CELL PAPILLOMA): active; positive
carcinogen call (Species: RAT, Strain/Sex: F344/MALE, Route: GAVAGE, Dose: 0, 75, 150 MG/KG IN CORN OIL 5 D/WK FOR 103 WK, Dose: 0, 75, 150 MG/KG IN CORN OIL 5 D/WK FOR 103 WK, Tumor Site: Type of Lesion: FORESTOMACH: PAPILLOMA): active; positive

O=C1NCCN1c1ncc([N+](=O)[O-])s1
carcinogen call (Species: HAMSTER, Route: ORAL, Tumor Site: Type of Lesion: FORESTOMACH, URINARY BLADDER): active; positive
carcinogen call (Species: MOUSE, Route: ORAL, Tumor Site: Type of Lesion: FORESTOMACH, MAMMARY GLAND, OVARIES, LUNG, URINARY BLADDER, Tumor Site: Type of Lesion: FORESTOMACH, MAMMARY GLAND, OVARIES, LUNG, URINARY BLADDER): active; positive

CC(C)(C)c1cc(O)c(C(C)(C)C)cc1O
carcinogen call (Species: HAMSTER, Strain/Sex: SYRIAN/MALE, Route: ORAL, Dose: 1% IN DIET FOR 24 WK (STUDY DURATION: 24 WK), Tumor Site: Type of Lesion: FORESTOMACH: PAPILLOMA): active; positive

C#CCOc1ccc(CCNC(=O)C(OCC#C)c2ccc(Cl)cc2)cc1OC (stereo unspecified)
carcinogen call (Species: Mouse, Strain/Sex: C57BL/10J CD-1 / Female (50/Group), Route: Oral, Dose: 0, 13.2, 67.8, 284.6 mg/kg/day of 96.5% mandipropamid in diet for 80 wk, study duration 80 wk, Dose: 0, 13.2, 67.8, 284.6 mg/kg/day of 96.5% mandipropamid in diet for 80 wk, study duration 80 wk): inactive; negative
carcinogen call (Species: Mouse, Strain/Sex: C57BL/10J CD-1 / Male (50/Group), Route: Oral, Dose: 0, 10.6, 55.2, 222.7 mg/kg/day of 96.5% mandipropamid in diet for 80 wk, study duration 80 wk, Dose: 0, 10.6, 55.2, 222.7 mg/kg/day of 96.5% mandipropamid in diet for 80 wk, study duration 80 wk): inactive; negative
carcinogen call (Species: Rat, Strain/Sex: Alpk:AP SD (Wistar-derived)/Female (52/Group), Route: Oral, Dose: 0, 3.5, 17.6, 69.7 mg/kg/day of 96.5% mandipropamid in diet for 104 wk, study duration 104 wk, Dose: 0, 3.5, 17.6, 69.7 mg/kg/day of 96.5% mandipropamid in diet for 104 wk, study duration 104 wk): inactive; negative
carcinogen call (Species: Rat, Strain/Sex: Alpk:AP SD (Wistar-derived)/Male (52/Group), Route: Oral, Dose: 0, 3.0, 15.2, 61.3 mg/kg/day of 96.5% mandipropamid in diet for 104 wk, study duration 104 wk, Dose: 0, 3.0, 15.2, 61.3 mg/kg/day of 96.5% mandipropamid in diet for 104 wk, study duration 104 wk): inactive; negative

CCN(CC)C(=O)N(C)N=O
carcinogen call (Species: HAMSTER, Strain/Sex: SYRIAN/FEMALE, Route: SUBCUTANEOUS, Dose: 0, 7.75, 14.15, 28.3, 56.6 MG/KG IN 0.1 ML OLIVE OIL 1/WK FOR 52 WK (STUDY DURATION: LIFESPAN), Dose: 0, 7.75, 14.15, 28.3, 56.6 MG/KG IN 0.1 ML OLIVE OIL 1/WK FOR 52 WK (STUDY DURATION: LIFESPAN), Tumor Site: Type of Lesion: NASAL CAVITY: SQUAMOUS CELL CARCINOMA, SPLEEN: HEMANGIOENDOTHELIOMA, FORESTOMACH: SQUAMOUS CELL CARCINOMA, PAPILLOMA, Tumor Site: Type of Lesion: NASAL CAVITY: SQUAMOUS CELL CARCINOMA, SPLEEN: HEMANGIOENDOTHELIOMA, FORESTOMACH: SQUAMOUS CELL CARCINOMA, PAPILLOMA): active; positive
carcinogen call (Species: HAMSTER, Strain/Sex: SYRIAN/MALE, Route: GAVAGE, Dose: 0, 40 MG/ML ((0.2 ML OF A SOLUTION IN ETHYL ACETATE/CORN OIL (1:2)) 1/WK FOR 25 WK (STUDY DURATION: LIFE SPAN), Tumor Site: Type of Lesion: LIVER: HEMANGIOSARCOMA, CHOLANGIOMA OR CARCINOMA, SPLEEN: HEMANGIOSARCOMA, FORESTOMACH: SQUAMOUS CELL CARCINOMA OR PAPIL, Tumor Site: Type of Lesion: LIVER: HEMANGIOSARCOMA, CHOLANGIOMA OR CARCINOMA, SPLEEN: HEMANGIOSARCOMA, FORESTOMACH: SQUAMOUS CELL CARCINOMA OR PAPIL): active; positive
carcinogen call (Species: HAMSTER, Strain/Sex: SYRIAN/MALE, Route: SUBCUTANEOUS, Dose: 0, 7.75, 14.15, 28.3, 56.6 MG/KG IN 0.1 ML OLIVE OIL 1/WK FOR 52 WK (STUDY DURATION: LIFESPAN), Dose: 0, 7.75, 14.15, 28.3, 56.6 MG/KG IN 0.1 ML OLIVE OIL 1/WK FOR 52 WK (STUDY DURATION: LIFESPAN), Tumor Site: Type of Lesion: NASAL CAVITY: SQUAMOUS CELL CARCINOMA, SPLEEN: HEMANGIOENDOTHELIOMA, FORESTOMACH: SQUAMOUS CELL CARCINOMA, PAPILLOMA, Tumor Site: Type of Lesion: NASAL CAVITY: SQUAMOUS CELL CARCINOMA, SPLEEN: HEMANGIOENDOTHELIOMA, FORESTOMACH: SQUAMOUS CELL CARCINOMA, PAPILLOMA): active; positive

COc1cc2c(c3oc(=O)c4c(c13)CCC4=O)[C@@H]1CCO[C@@H]1O2
carcinogen call (Species: HUMAN, Route: ORAL, Tumor Site: Type of Lesion: LIVER): active; positive
carcinogen call (Species: RAT, Route: ORAL, Tumor Site: Type of Lesion: LIVER): active; positive

CN1C(=O)C[C@@H](C(=O)N[C@@H](Cc2cnc[nH]2)C(=O)N2CCC[C@H]2C(N)=O)NC1=O
carcinogen call (Species: MOUSE, Strain/Sex: CD-1/FEMALE, Route: GAVAGE, Dose: 0, 5, 15, 50 MG/KG 1/D 7 D/WK FOR 104 WK (STUDY DURATION: 104 WK), Dose: 0, 5, 15, 50 MG/KG 1/D 7 D/WK FOR 104 WK (STUDY DURATION: 104 WK)): inactive; negative
carcinogen call (Species: MOUSE, Strain/Sex: CD-1/MALE, Route: GAVAGE, Dose: 0, 5, 15, 50 MG/KG 1/D 7 D/WK FOR 104 WK (STUDY DURATION: 104 WK), Dose: 0, 5, 15, 50 MG/KG 1/D 7 D/WK FOR 104 WK (STUDY DURATION: 104 WK)): inactive; negative
carcinogen call (Species: RAT, Strain/Sex: STRAIN-CD/FEMALE, Route: GAVAGE, Dose: 0, 20, 60, 200 MG/KG 1/D 7 D/WK FOR 94 WK (STUDY DURATION: 94 WK), Dose: 0, 20, 60, 200 MG/KG 1/D 7 D/WK FOR 94 WK (STUDY DURATION: 94 WK)): inactive; negative
carcinogen call (Species: RAT, Strain/Sex: STRAIN-CD/MALE, Route: GAVAGE, Dose: 0, 20, 60, 200 MG/KG 1/D 7 D/WK FOR 90 WK (STUDY DURATION: 90 WK), Dose: 0, 20, 60, 200 MG/KG 1/D 7 D/WK FOR 90 WK (STUDY DURATION: 90 WK)): inactive; negative
